Test results from ChEMBL document CHEMBL5104211, “Design and synthesis of bile acid derivatives and their activity against colon cancer” (RSC Med Chem, 2022).
One block for each compound: values may come before it. Active and inactive are the calls of the source. The calls are words filed in the database; no cut-off is given here.

Columns and labels:
HCT-116 [1] = experiment: Induction of apoptosis in human HCT-116 cells assessed as unclear cell rupture edges at 30 micromol/L incubated for 48 hrs by Giemsa staining based fluorescence microscopy; assay type: functional; details: dose 30.0 µmol/L
[2] = Cytotoxicity against human WI-38 cells assessed as inhibition of cell proliferation by MTT assay; assay type: toxicity, cell-based
HT-29 = experiment: Anticancer activity against human HT-29 cells assessed as inhibition of cell proliferation by MTT assay; assay type: functional, cell-based
HCT-116 [3] = experiment: […] activity in human HCT-116 cells assessed as downregulation of Bcl-2 level at 30 micromol/L incubated for 48 hrs by Western blot analysis; assay type: functional, cell-based; details: dose 30.0 µmol/L
RKO = experiment: Anticancer activity against human RKO cells assessed as inhibition of cell proliferation by MTT assay; assay type: functional, cell-based
A549 = experiment: Anticancer activity against human A549 cells assessed as inhibition of cell proliferation by MTT assay; assay type: functional, cell-based
HCT-116 [4] = experiment: Induction of cell cycle arrest in human HCT-116 cells assessed as accumulation G2/M phase at 25 micromol/L and measured after 48 hrs by propidium iodide staining based flow cytometry analysis (Rvb= 11%); assay type: functional; details: dose 25 µmol/L, at 25 µM
HCT-116 [5] = experiment: Inhibition of cell invasion in human HCT-116 cells at 20 micromol/L and measured after 24 hrs by crystal violet staining based transwell assay; assay type: functional; details: HCT-116, 24 h, dose 20 µmol/L
SW480 = experiment: Anticancer activity against human SW480 cells assessed as inhibition of cell proliferation by MTT assay; assay type: functional, cell-based
HCT-116 [6] = experiment: Induction of apoptosis in human HCT-116 cells assessed as necrotic cells at 30 micromol/L incubated for 48 hrs by annexin V-FITC and propidium iodide staining based flow cytometry analysis (reference value: 0.88%); assay type: functional; details: dose 30 µmol/L, at 30 µM
HCT-116 [7] = experiment: […] activity in human HCT-116 cells assessed as upregulation of cleaved caspase-3 level at 30 micromol/L incubated for 48 hrs by Western blot analysis; assay type: functional, cell-based; details: dose 30.0 µmol/L
MGC-803 = experiment: Anticancer activity against human MGC-803 cells assessed as inhibition of cell proliferation by MTT assay; assay type: functional, cell-based
HCT-116 [8] = experiment: Induction of apoptosis in human HCT-116 cells assessed as apoptotic body formation at 30 micromol/L incubated for 48 hrs by Giemsa staining based fluorescence microscopy; assay type: functional, cell-based; details: dose 30.0 µmol/L
HCT-116 [9] = experiment: Induction of apoptosis in human HCT-116 cells assessed as retraction of the nucleus at 30 micromol/L incubated for 48 hrs by Giemsa staining based fluorescence microscopy; assay type: functional, cell-based; details: dose 30.0 µmol/L
HCT-116 [10] = experiment: Induction of ROS generation in human HCT-116 cells assessed as increase in intracellular ROS level incubated for 48 hrs by DCFH-DA staining based flow cytometric analysis (Rvb=73.65%); assay type: functional
HCT-116 [11] = experiment: Inhibition of cell migration in human HCT-116 cells at 20 micromol/L and measured after 24 hrs by crystal violet staining based transwell assay; assay type: functional; details: dose 20.0 µmol/L
HCT-116 [12] = experiment: Anticancer activity against human HCT-116 cells assessed as decrease in size of colonies at 25 micromol/L and measured after 48 hrs by crystal violet dye based colony formation assay; assay type: functional, cell-based; details: dose 25.0 µmol/L
HCT-116 [13] = experiment: Induction of apoptosis in human HCT-116 cells assessed as viable cells at 30 micromol/L incubated for 48 hrs by annexin V-FITC and propidium iodide staining based flow cytometry analysis (reference value: 89.29%); assay type: functional; details: HCT-116, 48 h, dose 30 µmol/L, read-out: Activity
HCT-116 [14] = experiment: Anticancer activity in human HCT-116 cells assessed as downregulation of phosphorylated STAT3 level at 30 micromol/L incubated for 48 hrs by Western blot analysis; assay type: functional, cell-based; details: dose 30.0 µmol/L
HCT-116 [15] = experiment: Induction of apoptosis in human HCT-116 cells assessed as early apoptotic cells at 30 micromol/L incubated for 48 hrs by annexin V-FITC and propidium iodide staining based flow cytometry analysis (reference value: 2.69%); assay type: functional; details: dose 30 µmol/L, at 30 µM
LoVo = experiment: Anticancer activity against human LoVo cells assessed as inhibition of cell proliferation by MTT assay; assay type: functional, cell-based
HCT-116 [16] = experiment: Anticancer activity against human HCT-116 cells assessed as inhibition of cell proliferation at 30 micromol/L incubated for 24 hrs by MTT assay; assay type: functional; details: HCT-116, 24 h, dose 30 µmol/L
HCT-116 [17] = experiment: Anticancer activity against human HCT-116 cells assessed as inhibition of cell proliferation at 25 micromol/L incubated for 24 hrs by MTT assay; assay type: functional; details: HCT-116, 24 h, dose 25 µmol/L
Huh-7 = experiment: Anticancer activity against human Huh-7 cells assessed as inhibition of cell proliferation by MTT assay; assay type: functional, cell-based
HCT-116 [18] = experiment: Anticancer activity against human HCT-116 cells assessed as inhibition of cell proliferation at 5 to 50 micromol/L incubated for 24 hrs by MTT assay; assay type: functional, cell-based; details: dose 5-50 µmol/L, DDE = dose-dependent effect
HCT-116 [19] = experiment: Anticancer activity against human HCT-116 cells assessed as decrease in number of colonies at 25 micromol/L and measured after 48 hrs by crystal violet dye based colony formation assay; assay type: functional, cell-based; details: dose 25.0 µmol/L
HCT-116 [20] = experiment: Induction of apoptosis in human HCT-116 cells assessed as retraction of the cytoplasm at 30 micromol/L incubated for 48 hrs by Giemsa staining based fluorescence microscopy; assay type: functional, cell-based; details: dose 30.0 µmol/L
HCT-116 [21] = experiment: Anticancer activity against human HCT-116 cells assessed as inhibition of cell proliferation by MTT assay; assay type: functional, cell-based
HCT-116 [22] = experiment: Induction of mitochondrial membrane potential loss in human HCT-116 cells and measured after 48 hrs by TRME staining based flow cytometric analysis (reference value: 97.52%); assay type: functional
HCT-116 [23] = experiment: Anticancer activity against human HCT-116 cells assessed as inhibition of cell proliferation at 20 to 40 micromol/L incubated for 24 to 72 hrs by MTT assay; assay type: functional, cell-based; details: dose 20-40 µmol/L, time 24-72 hrs, TDE = time-dependent effect
HCT-116 [24] = experiment: Induction of apoptosis in human HCT-116 cells assessed as late apoptotic cells at 30 micromol/L incubated for 48 hrs by annexin V-FITC and propidium iodide staining based flow cytometry analysis (reference value: 7.13%); assay type: functional; details: dose 30 µmol/L, at 30 µM
HCT-116 [25] = experiment: Induction of apoptosis in human HCT-116 cells assessed as contraction of cell volume at 30 micromol/L incubated for 48 hrs by Giemsa staining based fluorescence microscopy; assay type: functional; details: dose 30.0 µmol/L
SK-HEP1 = experiment: Anticancer activity against human SK-HEP1 cells assessed as inhibition of cell proliferation by MTT assay; assay type: functional, cell-based
RAW264.7 [26] = experiment: Anti-inflammatory activity against mouse RAW264.7 cells assessed as downregulation of LPS-induced TNF-alpha level at 25 micromol/L incubated for 24 hrs in presence of LPS by ELISA; assay type: functional; details: dose 25 µmol/L, at 25 µM
RAW264.7 [27] = experiment: Anti-inflammatory activity against mouse RAW264.7 cells assessed as inhibition of LPS-induced NO production incubated for 24 hrs in presence of LPS by Griess reagent-based assay; assay type: functional, cell-based; details: RAW264.7, 24 h
RAW264.7 [28] = experiment: Anti-inflammatory activity against mouse RAW264.7 cells assessed as inhibition of LPS-induced NO production at 10 micromol/L incubated for 24 hrs in presence of LPS by Griess reagent-based assay; assay type: functional; details: RAW264.7, 24 h, dose 10 µmol/L
RAW264.7 [29] = experiment: Anti-inflammatory activity against mouse RAW264.7 cells assessed as inhibition of LPS-induced NO production at 25 micromol/L incubated for 24 hrs in presence of LPS by Griess reagent-based assay; assay type: functional; details: RAW264.7, 24 h, dose 25 µmol/L

- IC50 (HT-29): 27.3 µM
- IC50 (A549): 79.8 µM
- IC50 (SW480): 23.6 µM
- IC50 (MGC-803): 31.5 µM
- IC50 (LoVo): 22.8 µM
- IC50 (Huh-7): 68 µM
- IC50 (HCT-116 [21]): 27.4 µM
- IC50 (SK-HEP1): 38.6 µM
Structure (SMILES): COC(=O)[C@H](CCSC)NC(=O)CC[C@@H](C)[C@H]1CC[C@H]2[C@@H]3[C@H](O)C[C@@H]4C[C@H](O)CC[C@]4(C)[C@H]3CC[C@]12C
- Activity (HCT-116 [1]): Active
- IC50 [2]: > 500 µM
- Activity (HCT-116 [3]): Active
- IC50 (RKO): 27.3 µM
- Activity (HCT-116 [4]): 72.91%
- inhibition at 20 µM (HCT-116 [5]): 50%
- Activity (HCT-116 [6]): 0.71%
- Activity (HCT-116 [7]): Active
- Activity (HCT-116 [8]): Active
- Activity (HCT-116 [9]): Active
- Activity (HCT-116 [10]): 86.51%
- inhibition (HCT-116 [11]): Active
- Activity (HCT-116 [12]): Active
- viability at 30 µM (HCT-116 [13]): 43.1%
- Activity (HCT-116 [14]): Active
- Activity (HCT-116 [15]): 3.86%
- inhibition at 30 µM (HCT-116 [16]): 70%
- inhibition at 25 µM (HCT-116 [17]): 30%
- inhibition (HCT-116 [18]): Dde
- Activity (HCT-116 [19]): Active
- Activity (HCT-116 [20]): Active
- Activity (HCT-116 [22]): 79.54%
- inhibition (HCT-116 [23]): Tde
- Activity (HCT-116 [24]): 52.35%
- Activity (HCT-116 [25]): Active

- IC50 (HT-29): 45.4 µM
- IC50 (A549): 124 µM
- IC50 (SW480): 134 µM
- IC50 (RAW264.7 [27]): 12.1 µM
- IC50 (MGC-803): 82.3 µM
- IC50 (LoVo): 59.8 µM
- IC50 (Huh-7): > 200 µM
- IC50 (HCT-116 [21]): 50.3 µM
- IC50 (SK-HEP1): > 200 µM
Structure (SMILES): C[C@H](CCC(=O)OCc1cc(O)cc(O)c1)[C@H]1CC[C@H]2[C@@H]3CC[C@@H]4C[C@H](O)CC[C@]4(C)[C@H]3CC[C@]12C
- Activity (RAW264.7 [26]): 50%
- IC50 [2]: > 200 µM
- IC50 (RKO): 42.9 µM
- inhibition at 10 µM (RAW264.7 [28]): 49%
- inhibition at 25 µM (RAW264.7 [29]): 82.1%
